{"source": "ChEMBL document CHEMBL1201862", "about": "“PubChem BioAssay data set” (2004)", "key": {"[1]": {"assay": "A Cell Based Secondary Assay To Explore Cytotoxicity of Compounds that Sensitize Mycobacterium Tuberculosis to Beta-Lactam Antibiotics.", "type": "functional"}, "[2]": {"assay": "cytotoxicity in HEK-293T cells, dose response, cytotoxicity control for BCR NF-kB inhibitor project, luminescence, B-cell screen hits (AID 489021);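 note: HEK-293T cells carrying an NF-kB luciferase reporter; cells exposed to compound for about 14 hours before viability readout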", "type": "functional, cell-based"}, "[3]": {"molecular_target": "T1, Rac GTPase-activating protein 1 (Homo sapiens, UniProt Q9H0H5)", "T1 sequence (Q9H0H5 whole entry)": "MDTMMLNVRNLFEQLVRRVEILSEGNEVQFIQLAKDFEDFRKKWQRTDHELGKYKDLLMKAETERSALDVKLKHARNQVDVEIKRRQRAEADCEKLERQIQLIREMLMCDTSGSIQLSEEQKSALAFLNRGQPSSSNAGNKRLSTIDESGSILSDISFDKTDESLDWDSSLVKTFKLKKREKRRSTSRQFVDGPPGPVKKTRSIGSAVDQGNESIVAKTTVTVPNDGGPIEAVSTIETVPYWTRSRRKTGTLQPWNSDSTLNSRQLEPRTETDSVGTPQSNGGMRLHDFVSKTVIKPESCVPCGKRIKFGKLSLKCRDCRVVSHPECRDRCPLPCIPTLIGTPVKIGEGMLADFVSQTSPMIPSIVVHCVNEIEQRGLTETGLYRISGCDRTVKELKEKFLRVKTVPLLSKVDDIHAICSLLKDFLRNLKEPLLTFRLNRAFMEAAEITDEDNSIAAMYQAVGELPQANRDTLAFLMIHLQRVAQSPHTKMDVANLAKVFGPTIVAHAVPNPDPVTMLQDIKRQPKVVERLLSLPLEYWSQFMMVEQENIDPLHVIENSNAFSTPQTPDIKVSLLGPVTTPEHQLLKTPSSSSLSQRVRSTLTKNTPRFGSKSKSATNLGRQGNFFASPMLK", "assay": "MgcRacGAP GTPase-activating activity inhibitors, confirmation, biochemical, ADP Hunter fluorescence, primary and confirmatory (AID 624330)", "type": "functional"}, "[4]": {"molecular_target": "Eukaryotic translation initiation factor 4E (Mus musculus, UniProt P63073)", "sequence (P63073 whole entry)": "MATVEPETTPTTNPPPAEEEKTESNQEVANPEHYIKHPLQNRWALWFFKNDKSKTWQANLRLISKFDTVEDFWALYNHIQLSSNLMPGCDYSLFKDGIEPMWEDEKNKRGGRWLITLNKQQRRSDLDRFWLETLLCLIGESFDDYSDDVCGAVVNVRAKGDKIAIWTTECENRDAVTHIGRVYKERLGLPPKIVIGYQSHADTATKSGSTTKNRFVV", "assay": "eIF4E–eIF4G protein interaction inhibitors, dose response, biochemical, TR-FRET (AID 855);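 note: potency for disrupting eIF4E binding to eIF4GI seen as loss of FRET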", "type": "functional"}, "[5]": {"molecular_target": "DNA dC->dU-editing enzyme APOBEC-3G (Homo sapiens, UniProt Q9HC16)", "sequence (Q9HC16 whole entry)": "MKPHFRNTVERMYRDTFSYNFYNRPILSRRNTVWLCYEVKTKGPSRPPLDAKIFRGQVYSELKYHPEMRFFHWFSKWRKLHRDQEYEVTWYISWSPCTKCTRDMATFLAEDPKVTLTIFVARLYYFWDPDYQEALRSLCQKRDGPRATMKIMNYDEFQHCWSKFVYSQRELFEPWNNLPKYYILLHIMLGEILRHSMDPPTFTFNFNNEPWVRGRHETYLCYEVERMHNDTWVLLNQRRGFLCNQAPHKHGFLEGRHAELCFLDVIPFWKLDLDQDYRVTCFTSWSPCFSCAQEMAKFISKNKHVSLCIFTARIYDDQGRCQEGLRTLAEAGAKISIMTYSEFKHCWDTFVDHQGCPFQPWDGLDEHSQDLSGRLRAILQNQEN", "type": "functional"}, "[6]": {"molecular_target": "DNA dC->dU-editing enzyme APOBEC-3A (Homo sapiens, UniProt P31941)", "sequence (P31941 whole entry)": "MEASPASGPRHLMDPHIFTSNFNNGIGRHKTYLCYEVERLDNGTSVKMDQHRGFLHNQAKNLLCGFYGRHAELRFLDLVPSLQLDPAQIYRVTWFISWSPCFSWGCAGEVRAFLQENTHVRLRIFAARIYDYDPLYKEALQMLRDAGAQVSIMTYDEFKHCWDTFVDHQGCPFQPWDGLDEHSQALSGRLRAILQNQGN", "assay": "Dose Response confirmation of small molecule APOBEC3A DNA Deaminase Inhibitors via a fluorescence-based single-stranded DNA deaminase assay. [Related pubchem assays (depositor defined):AID493011, AID493024]", "type": "functional"}, "[7]": {"assay": "inhibitors of Vif binding to APOBEC3G peptide, primary screen, biochemical, TR-FRET, GST-Vif 1-94, biotin-A3G peptide, dose response retest (AID 1117319);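 note: TR-FRET signal of purified GST-Vif binding a biotinylated A3G peptide; inhibitors lower the FRET signal by blocking Vif and A3G binding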", "type": "functional"}, "[8]": {"molecular_target": "T2, Apoptotic protease-activating factor 1 (Homo sapiens, UniProt O14727)", "T2 sequence (O14727 whole entry)": "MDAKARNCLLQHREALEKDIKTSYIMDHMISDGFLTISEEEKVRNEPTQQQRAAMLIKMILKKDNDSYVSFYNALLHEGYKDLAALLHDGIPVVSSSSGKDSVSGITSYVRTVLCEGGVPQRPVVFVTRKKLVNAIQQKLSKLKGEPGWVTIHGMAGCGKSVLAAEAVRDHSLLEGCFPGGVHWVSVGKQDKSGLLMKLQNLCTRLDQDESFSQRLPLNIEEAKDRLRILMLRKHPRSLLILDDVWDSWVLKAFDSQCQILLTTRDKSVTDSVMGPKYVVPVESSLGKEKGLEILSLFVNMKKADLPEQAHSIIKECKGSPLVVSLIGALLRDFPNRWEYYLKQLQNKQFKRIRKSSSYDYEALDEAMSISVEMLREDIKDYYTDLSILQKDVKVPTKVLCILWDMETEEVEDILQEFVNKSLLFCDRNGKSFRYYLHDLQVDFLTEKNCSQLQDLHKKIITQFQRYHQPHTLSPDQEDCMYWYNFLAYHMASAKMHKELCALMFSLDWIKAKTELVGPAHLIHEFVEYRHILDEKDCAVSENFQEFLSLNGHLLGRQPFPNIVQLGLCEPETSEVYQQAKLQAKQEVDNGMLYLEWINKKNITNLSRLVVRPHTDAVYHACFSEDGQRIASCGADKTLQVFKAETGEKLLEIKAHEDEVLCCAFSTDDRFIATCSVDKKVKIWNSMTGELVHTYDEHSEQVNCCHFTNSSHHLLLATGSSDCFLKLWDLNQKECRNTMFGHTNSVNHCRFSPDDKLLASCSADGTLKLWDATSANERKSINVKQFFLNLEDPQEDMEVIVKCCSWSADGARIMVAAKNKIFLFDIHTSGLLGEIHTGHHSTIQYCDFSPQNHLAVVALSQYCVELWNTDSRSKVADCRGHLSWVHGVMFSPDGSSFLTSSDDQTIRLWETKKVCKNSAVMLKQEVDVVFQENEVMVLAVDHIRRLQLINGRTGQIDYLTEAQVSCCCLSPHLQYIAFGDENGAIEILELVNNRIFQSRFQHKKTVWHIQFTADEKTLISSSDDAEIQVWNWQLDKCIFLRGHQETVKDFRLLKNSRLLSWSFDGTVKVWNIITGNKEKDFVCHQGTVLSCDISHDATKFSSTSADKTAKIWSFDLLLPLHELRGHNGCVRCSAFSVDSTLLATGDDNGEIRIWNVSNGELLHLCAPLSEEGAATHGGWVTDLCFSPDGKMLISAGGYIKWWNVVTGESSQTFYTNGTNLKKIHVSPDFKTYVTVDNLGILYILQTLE", "type": "functional"}, "[9]": {"molecular_target": "T3, Mannose-6-phosphate isomerase (Homo sapiens, UniProt P34949)", "T3 sequence (P34949 whole entry)": "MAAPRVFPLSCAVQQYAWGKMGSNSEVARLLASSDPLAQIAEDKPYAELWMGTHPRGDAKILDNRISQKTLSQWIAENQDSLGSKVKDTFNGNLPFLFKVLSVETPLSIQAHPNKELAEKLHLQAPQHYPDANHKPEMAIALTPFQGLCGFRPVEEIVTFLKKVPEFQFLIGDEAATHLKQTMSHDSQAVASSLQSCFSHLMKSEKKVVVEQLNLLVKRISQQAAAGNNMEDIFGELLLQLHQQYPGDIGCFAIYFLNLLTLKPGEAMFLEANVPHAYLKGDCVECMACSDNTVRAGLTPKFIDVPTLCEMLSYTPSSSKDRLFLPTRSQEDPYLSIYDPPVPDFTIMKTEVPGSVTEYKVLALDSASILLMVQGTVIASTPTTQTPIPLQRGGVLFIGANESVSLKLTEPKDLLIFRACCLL", "assay": "human PMI inhibitors, high substrate, primary screen, biochemical, fluorescence intensity, high mannose 6-phosphate (AID 1220)"}, "Protein RecA": {"molecular_target": "T4, Protein RecA (Mycobacterium tuberculosis, UniProt P9WHJ3)", "T4 sequence (P9WHJ3 whole entry)": "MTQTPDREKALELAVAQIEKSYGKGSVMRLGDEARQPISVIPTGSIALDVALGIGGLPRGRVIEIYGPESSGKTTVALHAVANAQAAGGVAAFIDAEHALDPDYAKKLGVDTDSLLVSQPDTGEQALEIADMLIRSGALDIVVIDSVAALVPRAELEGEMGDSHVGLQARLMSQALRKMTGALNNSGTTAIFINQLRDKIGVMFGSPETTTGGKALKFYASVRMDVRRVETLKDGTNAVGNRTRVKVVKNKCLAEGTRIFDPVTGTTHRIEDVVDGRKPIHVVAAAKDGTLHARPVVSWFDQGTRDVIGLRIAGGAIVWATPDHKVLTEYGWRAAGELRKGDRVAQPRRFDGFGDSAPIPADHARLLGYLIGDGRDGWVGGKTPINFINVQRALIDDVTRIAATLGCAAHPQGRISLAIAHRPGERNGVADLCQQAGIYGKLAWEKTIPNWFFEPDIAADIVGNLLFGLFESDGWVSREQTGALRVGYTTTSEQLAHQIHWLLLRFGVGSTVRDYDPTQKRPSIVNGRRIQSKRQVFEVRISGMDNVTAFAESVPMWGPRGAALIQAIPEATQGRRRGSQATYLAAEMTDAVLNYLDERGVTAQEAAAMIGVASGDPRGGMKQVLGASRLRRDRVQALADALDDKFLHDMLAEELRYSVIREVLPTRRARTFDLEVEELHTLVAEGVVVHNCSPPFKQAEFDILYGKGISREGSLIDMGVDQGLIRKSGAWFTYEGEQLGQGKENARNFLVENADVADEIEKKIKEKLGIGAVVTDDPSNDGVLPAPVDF", "assay": "Fluorescence Cell-Free Homogeneous Dose Retest to Identify Inhibitors of RecA-Intein Splicing Activity. [Related pubchem assays (depositor defined):AID2097, AID2223, AID489010, AID492950]", "type": "functional"}, "Estrogen receptor beta": {"molecular_target": "Estrogen receptor beta (Homo sapiens, UniProt Q92731)", "sequence (Q92731 whole entry)": "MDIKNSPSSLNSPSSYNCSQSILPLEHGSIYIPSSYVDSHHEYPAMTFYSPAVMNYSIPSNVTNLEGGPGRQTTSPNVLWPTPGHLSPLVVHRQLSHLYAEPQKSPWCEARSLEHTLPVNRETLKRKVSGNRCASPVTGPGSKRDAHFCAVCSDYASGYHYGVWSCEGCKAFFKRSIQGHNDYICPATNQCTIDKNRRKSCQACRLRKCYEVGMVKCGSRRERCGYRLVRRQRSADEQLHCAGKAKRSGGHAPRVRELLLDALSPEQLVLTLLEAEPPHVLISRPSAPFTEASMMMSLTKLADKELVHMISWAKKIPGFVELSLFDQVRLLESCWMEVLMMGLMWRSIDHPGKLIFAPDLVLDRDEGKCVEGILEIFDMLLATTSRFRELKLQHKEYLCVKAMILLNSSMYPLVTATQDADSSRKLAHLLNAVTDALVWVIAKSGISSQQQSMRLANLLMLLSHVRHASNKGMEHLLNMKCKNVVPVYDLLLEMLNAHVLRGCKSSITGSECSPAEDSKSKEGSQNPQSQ"}, "[10]": {"assay": "THP-1 cell cytotoxicity, dose response, cytotoxicity control for Vif-APOBEC3G degradation inhibitor project, THP-1 cells (AID 1117359)", "type": "functional", "conditions": "Human immunodeficiency virus 1, THP-1"}, "[11]": {"molecular_target": "Glucose-6-phosphate 1-dehydrogenase (Homo sapiens, UniProt P11413)", "sequence (P11413 whole entry)": "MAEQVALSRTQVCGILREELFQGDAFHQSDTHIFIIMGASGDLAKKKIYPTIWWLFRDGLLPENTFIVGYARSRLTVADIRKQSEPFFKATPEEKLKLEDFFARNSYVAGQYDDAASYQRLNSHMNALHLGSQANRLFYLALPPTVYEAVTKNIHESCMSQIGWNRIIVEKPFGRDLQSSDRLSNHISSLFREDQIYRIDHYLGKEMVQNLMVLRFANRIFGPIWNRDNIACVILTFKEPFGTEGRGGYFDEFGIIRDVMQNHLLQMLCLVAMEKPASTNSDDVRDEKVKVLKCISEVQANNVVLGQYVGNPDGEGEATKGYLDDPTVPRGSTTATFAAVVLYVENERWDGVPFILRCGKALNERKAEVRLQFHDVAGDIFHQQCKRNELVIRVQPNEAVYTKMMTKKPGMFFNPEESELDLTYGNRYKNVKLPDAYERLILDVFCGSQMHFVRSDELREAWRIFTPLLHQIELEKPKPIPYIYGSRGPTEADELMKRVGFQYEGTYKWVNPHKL", "assay": "human G6PD enzyme inhibitors, dose response, selectivity assay for P. falciparum G6PD inhibitor project, biochemical, fluorescence (AID 504792)", "type": "functional"}, "[12]": {"assay": "cytotoxicity in HEK-293T cells, dose response, cytotoxicity control for TCR NF-kB inhibitor project, luminescence, T-cell screen hits (AID 489026);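 note: cells exposed to compound about 14 hours before the viability readout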", "type": "functional, cell-based"}}, "note": "Active and inactive are the calls of the source."}
{"smiles": "COCCCn1c(=O)/c(=C\\c2cccc(OC)c2OC)s/c1=C(/C#N)C(=O)Nc1ccc(C(=O)O)cc1", "values": [{"measurement": "CC50", "setting": "[1]", "result": "> 40 µM (active)"}, {"measurement": "IC50", "setting": "[2]", "result": "> 80 µM (inactive)"}]}
{"smiles": "Sc1nnc(-c2ccco2)n1/N=C/c1ccc(Cl)cc1", "values": [{"measurement": "IC50", "setting": "[3]", "result": "58.3 µM (active)"}, {"measurement": "IC50", "setting": "[4]", "result": "> 64 µM (inactive)"}]}
{"smiles": "CC(=O)OC(COC1C[C@@H]2CC[C@@]1(C)C2(C)C)C[N+]1(C)CCCCC1", "note": "(stereo partly drawn)", "values": [{"measurement": "IC50", "setting": "[5]", "result": "3.55 µM (active)"}, {"measurement": "IC50", "setting": "[6]", "result": "1.91 µM (active)"}]}
{"smiles": "Cc1ccc2c(c1)N=C(c1ccc(Cl)cc1)CO2", "values": [{"measurement": "IC50", "setting": "[7]", "result": "> 100 µM (active)"}]}
{"smiles": "CCCCCn1c(N)c(C(=O)NCc2cccs2)c2nc3ccccc3nc21", "values": [{"measurement": "IC50", "setting": "[8]", "result": "53.7 µM (active)"}, {"measurement": "IC50", "setting": "[9]", "result": "> 50 µM (not active)"}, {"measurement": "EC50", "setting": "Protein RecA", "result": "1.24 µM (active)"}]}
{"smiles": "CN(CC(O)COc1ccc(S(=O)(=O)N2CCOCC2)cc1)C1CCCCC1", "note": "(stereo not drawn)", "values": [{"measurement": "IC50", "setting": "Estrogen receptor beta", "result": "> 50 µM (not active)"}]}
{"smiles": "CC(=O)c1sc(NC(=O)C2CCN(C(=O)c3ccccc3C)CC2)nc1-c1ccccc1", "values": [{"measurement": "CC50", "setting": "[10]", "result": "> 40 µM (active)"}]}
{"smiles": "CC(=O)OCCCn1c(C)[n+](C)c2cc(Cl)c(Cl)cc21", "values": [{"measurement": "IC50", "setting": "[5]", "result": "2.41 µM (active)"}, {"measurement": "IC50", "setting": "[6]", "result": "2.27 µM (active)"}]}
{"smiles": "CCC(c1ccc(O)c(O)c1)C(CC)c1ccc(O)c(O)c1", "note": "(stereo not drawn)", "values": [{"measurement": "CC50", "setting": "[10]", "result": "11.7 µM (active)"}, {"measurement": "IC50", "setting": "[11]", "result": "> 80 µM (inactive)"}]}
{"smiles": "Oc1cc(-c2ccccc2)nc2ccccc12", "values": [{"measurement": "IC50", "setting": "[12]", "result": "> 80 µM (inactive)"}, {"measurement": "IC50", "setting": "[4]", "result": "> 64 µM (inactive)"}]}
